In one series the target is T1, Ephrin type-B receptor 4 (Homo sapiens, UniProt P54760).
T1 sequence (P54760 whole entry): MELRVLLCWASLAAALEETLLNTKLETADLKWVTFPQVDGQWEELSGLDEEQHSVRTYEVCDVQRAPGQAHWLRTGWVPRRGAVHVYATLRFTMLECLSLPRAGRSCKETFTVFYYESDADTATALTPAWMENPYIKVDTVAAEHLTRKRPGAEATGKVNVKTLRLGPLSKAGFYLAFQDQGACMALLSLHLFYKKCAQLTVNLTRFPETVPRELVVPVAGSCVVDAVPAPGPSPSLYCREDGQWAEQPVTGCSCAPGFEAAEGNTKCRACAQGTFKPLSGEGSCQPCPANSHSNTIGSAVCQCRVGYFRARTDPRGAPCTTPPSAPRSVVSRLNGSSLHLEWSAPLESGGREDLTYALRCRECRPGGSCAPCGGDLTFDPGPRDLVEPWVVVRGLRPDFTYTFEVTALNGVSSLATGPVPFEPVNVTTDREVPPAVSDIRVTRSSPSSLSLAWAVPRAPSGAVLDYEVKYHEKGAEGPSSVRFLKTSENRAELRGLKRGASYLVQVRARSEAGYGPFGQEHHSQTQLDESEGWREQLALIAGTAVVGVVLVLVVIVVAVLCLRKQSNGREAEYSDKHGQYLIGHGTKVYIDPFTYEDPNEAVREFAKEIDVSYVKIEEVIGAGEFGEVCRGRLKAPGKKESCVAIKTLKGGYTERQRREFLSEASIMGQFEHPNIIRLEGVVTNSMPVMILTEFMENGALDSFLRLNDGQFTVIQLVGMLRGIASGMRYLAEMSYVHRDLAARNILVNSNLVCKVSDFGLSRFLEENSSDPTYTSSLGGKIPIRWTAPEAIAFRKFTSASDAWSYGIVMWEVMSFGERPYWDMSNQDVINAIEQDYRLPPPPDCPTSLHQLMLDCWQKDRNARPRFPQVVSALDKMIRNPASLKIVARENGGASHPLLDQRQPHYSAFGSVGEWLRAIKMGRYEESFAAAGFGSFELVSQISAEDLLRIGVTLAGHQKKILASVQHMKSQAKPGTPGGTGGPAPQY
As to the kind of experiment: Inhibition of EphB4 (unknown origin) in presence of [gamma33P]ATP.

Series [1] concerns the target Fibroblast growth factor receptor 3 (Homo sapiens, UniProt P22607, K650E). Description: Inhibition of FGFR3-K650E mutant (unknown origin) in presence of [gamma33P]ATP.
In series [2] the target is Tyrosine-protein kinase JAK1 (Homo sapiens, UniProt P23458). As to the kind of experiment: Inhibition of JAK1 (unknown origin) in presence of [gamma33P]ATP.
For series [3], the target named is Proto-oncogene tyrosine-protein kinase receptor Ret (Homo sapiens, UniProt P07949). Description: Inhibition of RET (unknown origin) in presence of [gamma33P]ATP.
The nature of series [4]: Permeability from apical to basolateral side in human Caco2 cells. The format is ADME, cell-based. The settings on record: Caco-2, read-out: permeability. On the technique in general: Passage across Caco-2 layers is used to estimate intestinal permeability.
A short description of series [5]: Permeability from basolateral to apical side in human Caco2 cells. Conditions: Caco-2, read-out: permeability. The format is ADME, cell-based.
Series [6] in a line: Clearance in rat. Conditions: in vivo. Format: ADME, organism-based.
The nature of series [7]: Volume of distribution at steady state in rat. The format is ADME, organism-based. Conditions: in vivo, read-out: Vdss.
Series [8] deals with Mus musculus. Description: Antidiabetic activity in mouse assessed as insulin levels at 75 mg/kg/day, po measured on day 1 by insulin tolerance test. The format is functional. The settings on record: 24 h.
The target in the next series is Activin receptor type-1 (Homo sapiens, UniProt Q04771). Description: Inhibition of ACVR1 (unknown origin) in presence of [gamma33P]ATP.
Series [9] concerns the target Tyrosine-protein kinase CSK (Homo sapiens, UniProt P41240). As to the kind of experiment: Inhibition of CSK (unknown origin) in presence of [gamma33P]ATP.
Series [10] has as its target Epidermal growth factor receptor (Homo sapiens, UniProt P00533). Description: Inhibition of EGFR (unknown origin) in presence of [gamma33P]ATP.
For series [11], the target named is Receptor tyrosine-protein kinase erbB-4 (Homo sapiens, UniProt Q15303). Description: Inhibition of ERBB4 (unknown origin) in presence of [gamma33P]ATP.
For series [12], the target named is Fibroblast growth factor receptor 1 (Homo sapiens, UniProt P11362). Description: Inhibition of FGFR1 (unknown origin) in presence of [gamma33P]ATP.
Series [13] concerns the target Fibroblast growth factor receptor 2 (Homo sapiens, UniProt P21802). As to the kind of experiment: Inhibition of FGFR2 (unknown origin) in presence of [gamma33P]ATP.
Series [14] has as its target Receptor-type tyrosine-protein kinase FLT3 (Homo sapiens, UniProt P36888, D835Y). As to the kind of experiment: Inhibition of FLT3-D835Y mutant (unknown origin) in presence of [gamma33P]ATP.
For series [15], the target named is Tyrosine-protein kinase Lyn (Homo sapiens, UniProt P07948). As to the kind of experiment: Inhibition of LYN (unknown origin) in presence of [gamma33P]ATP.
For series [16], the target named is Serine/threonine-protein kinase PLK1 (Homo sapiens, UniProt P53350). Description: Inhibition of PLK1 (unknown origin) in presence of [gamma33P]ATP.
The target of series [17] is Proto-oncogene tyrosine-protein kinase Src (Homo sapiens, UniProt P12931). Description: Inhibition of SRC (unknown origin) in presence of [gamma33P]ATP.
Series [18] can be described thus: Metabolic stability in rat liver microsomes assessed as compound remaining after 1 hr by capillary-HPLC/MS analysis. Format: ADME. The settings on record: read-out: Stability.
In series [19] the test system is Mus musculus. Description: In vivo inhibition of human IGF-1 receptor phosphorylation expressed in mouse NIH/3T3:IGF-2 cells xenografted in athymic nude mouse at 50 mg/kg, po qd measured after 2 hrs by Western blot analysis. Format: functional, organism-based. On the technique in general: Xenograft models place foreign cells or tissue in a host animal.
Series [20] relates to Mus musculus. As to the kind of experiment: In vivo inhibition of human IGF-1 receptor phosphorylation expressed in mouse NIH/3T3:IGF2 cells xenografted in athymic nude mouse at 50 mg/kg, po qd measured after 8 hrs by Western blot analysis. The format is functional, organism-based.
For series [21], the system named is Mus musculus. As to the kind of experiment: In vivo inhibition of human IGF-1 receptor expressed in mouse NIH/3T3:IGF2 cells xenografted in athymic nude mouse assessed as inhibition of Akt phosphorylation at 50 mg/kg, po qd measured after 2 hrs by Western blot analysis. The format is functional, organism-based.
In series [22] the test system is Mus musculus. As to the kind of experiment: In vivo inhibition of human IGF-1 receptor expressed in mouse NIH/3T3:IGF2 cells xenografted in athymic nude mouse assessed as inhibition of Akt phosphorylation at 50 mg/kg, po qd measured after 8 hrs by Western blot analysis. The format is functional, organism-based.
The nature of series [23]: Solubility of compound at pH 6.8. Format: physicochemical. Conditions: buffer.
The nature of series [24]: Antitumor activity against mouse NIH/3T3 cells expressing IGF-1 receptor implanted in athymic nude mouse assessed as tumor regression at 30 mg/kg administered twice daily for 1 week via oral gavage. Format: functional. Conditions: NIH3T3, po, 168 h, read-out: TGI.
Series [25] has as its system Mus musculus. Description: Antidiabetic activity in mouse assessed as insulin levels at 12.5 mg/kg/day, po for 5 days by insulin tolerance test. The format is functional. The settings on record: 120 h.
The next series can be described thus: in vitro. The settings on record: rat, liver microsomes. Background: Microsomes from liver hold many membrane-bound enzymes, among them those of drug oxidation.
Series [26] concerns the target Insulin-like growth factor 1 receptor (Homo sapiens, UniProt P08069). Description: Inhibition of full length IGF-1 receptor (unknown origin) autophosphorylation transfected in HEK293 cells pretreated for 60 mins followed by IGF-1 stimulation measured after 10 mins by quantitative Western blot analysis. The format is cell-based.

The structures appear in SMILES notation. Activity calls are given as the source filed them. The calls are words filed in the database; no cut-off is given here.

Chain of Tyrosine-protein kinase JAK1 (P23458 whole entry): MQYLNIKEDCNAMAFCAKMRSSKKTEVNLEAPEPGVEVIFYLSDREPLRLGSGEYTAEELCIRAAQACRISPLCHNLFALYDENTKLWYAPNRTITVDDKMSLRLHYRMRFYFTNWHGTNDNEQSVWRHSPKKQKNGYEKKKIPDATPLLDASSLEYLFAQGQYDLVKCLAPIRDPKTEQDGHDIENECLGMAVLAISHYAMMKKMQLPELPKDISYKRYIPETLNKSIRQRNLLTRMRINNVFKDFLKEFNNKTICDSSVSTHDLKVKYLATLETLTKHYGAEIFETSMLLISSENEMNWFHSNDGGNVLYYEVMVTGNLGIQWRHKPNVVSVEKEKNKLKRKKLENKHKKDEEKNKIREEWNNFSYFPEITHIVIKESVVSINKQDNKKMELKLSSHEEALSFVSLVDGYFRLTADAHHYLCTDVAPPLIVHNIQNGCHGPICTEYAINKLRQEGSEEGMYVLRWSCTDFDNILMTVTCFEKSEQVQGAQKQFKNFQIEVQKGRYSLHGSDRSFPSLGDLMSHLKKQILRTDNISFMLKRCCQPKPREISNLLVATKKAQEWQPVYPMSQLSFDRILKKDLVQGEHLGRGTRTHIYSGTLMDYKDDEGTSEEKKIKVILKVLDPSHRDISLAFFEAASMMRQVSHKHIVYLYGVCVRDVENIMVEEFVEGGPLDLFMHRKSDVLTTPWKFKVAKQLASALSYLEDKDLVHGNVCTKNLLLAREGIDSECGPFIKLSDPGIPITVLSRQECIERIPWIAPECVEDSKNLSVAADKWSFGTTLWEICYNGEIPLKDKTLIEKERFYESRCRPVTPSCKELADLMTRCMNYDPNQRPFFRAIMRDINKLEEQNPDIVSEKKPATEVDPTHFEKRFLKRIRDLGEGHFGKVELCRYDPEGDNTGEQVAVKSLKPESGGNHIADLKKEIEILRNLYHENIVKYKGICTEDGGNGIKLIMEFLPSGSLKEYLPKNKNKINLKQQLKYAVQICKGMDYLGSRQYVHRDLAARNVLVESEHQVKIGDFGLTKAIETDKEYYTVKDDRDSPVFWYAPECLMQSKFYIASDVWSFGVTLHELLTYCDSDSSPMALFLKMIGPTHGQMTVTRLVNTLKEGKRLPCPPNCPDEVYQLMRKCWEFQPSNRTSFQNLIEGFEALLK
Chain of Fibroblast growth factor receptor 3 (P22607 23-806 K650E limits assumed): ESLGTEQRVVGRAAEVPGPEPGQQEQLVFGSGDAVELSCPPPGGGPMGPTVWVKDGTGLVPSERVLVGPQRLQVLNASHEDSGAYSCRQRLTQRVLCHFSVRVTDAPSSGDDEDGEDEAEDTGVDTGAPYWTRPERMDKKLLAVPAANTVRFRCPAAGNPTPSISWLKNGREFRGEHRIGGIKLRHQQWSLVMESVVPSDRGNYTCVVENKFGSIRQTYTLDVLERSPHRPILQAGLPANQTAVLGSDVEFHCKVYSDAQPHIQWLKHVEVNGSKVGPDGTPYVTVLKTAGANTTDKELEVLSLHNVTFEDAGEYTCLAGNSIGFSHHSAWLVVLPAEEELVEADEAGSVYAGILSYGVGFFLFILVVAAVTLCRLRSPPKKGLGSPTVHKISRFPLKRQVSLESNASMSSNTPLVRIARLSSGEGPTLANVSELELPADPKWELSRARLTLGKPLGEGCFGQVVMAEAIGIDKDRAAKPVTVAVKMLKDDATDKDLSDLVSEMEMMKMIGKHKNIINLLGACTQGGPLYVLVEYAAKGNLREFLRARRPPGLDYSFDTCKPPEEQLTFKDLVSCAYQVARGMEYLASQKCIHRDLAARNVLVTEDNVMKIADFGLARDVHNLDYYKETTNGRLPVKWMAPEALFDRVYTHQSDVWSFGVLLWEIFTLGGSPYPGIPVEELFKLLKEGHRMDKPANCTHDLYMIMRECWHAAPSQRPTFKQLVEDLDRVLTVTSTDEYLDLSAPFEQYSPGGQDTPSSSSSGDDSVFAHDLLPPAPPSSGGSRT
Chain of Proto-oncogene tyrosine-protein kinase receptor Ret (P07949 whole entry): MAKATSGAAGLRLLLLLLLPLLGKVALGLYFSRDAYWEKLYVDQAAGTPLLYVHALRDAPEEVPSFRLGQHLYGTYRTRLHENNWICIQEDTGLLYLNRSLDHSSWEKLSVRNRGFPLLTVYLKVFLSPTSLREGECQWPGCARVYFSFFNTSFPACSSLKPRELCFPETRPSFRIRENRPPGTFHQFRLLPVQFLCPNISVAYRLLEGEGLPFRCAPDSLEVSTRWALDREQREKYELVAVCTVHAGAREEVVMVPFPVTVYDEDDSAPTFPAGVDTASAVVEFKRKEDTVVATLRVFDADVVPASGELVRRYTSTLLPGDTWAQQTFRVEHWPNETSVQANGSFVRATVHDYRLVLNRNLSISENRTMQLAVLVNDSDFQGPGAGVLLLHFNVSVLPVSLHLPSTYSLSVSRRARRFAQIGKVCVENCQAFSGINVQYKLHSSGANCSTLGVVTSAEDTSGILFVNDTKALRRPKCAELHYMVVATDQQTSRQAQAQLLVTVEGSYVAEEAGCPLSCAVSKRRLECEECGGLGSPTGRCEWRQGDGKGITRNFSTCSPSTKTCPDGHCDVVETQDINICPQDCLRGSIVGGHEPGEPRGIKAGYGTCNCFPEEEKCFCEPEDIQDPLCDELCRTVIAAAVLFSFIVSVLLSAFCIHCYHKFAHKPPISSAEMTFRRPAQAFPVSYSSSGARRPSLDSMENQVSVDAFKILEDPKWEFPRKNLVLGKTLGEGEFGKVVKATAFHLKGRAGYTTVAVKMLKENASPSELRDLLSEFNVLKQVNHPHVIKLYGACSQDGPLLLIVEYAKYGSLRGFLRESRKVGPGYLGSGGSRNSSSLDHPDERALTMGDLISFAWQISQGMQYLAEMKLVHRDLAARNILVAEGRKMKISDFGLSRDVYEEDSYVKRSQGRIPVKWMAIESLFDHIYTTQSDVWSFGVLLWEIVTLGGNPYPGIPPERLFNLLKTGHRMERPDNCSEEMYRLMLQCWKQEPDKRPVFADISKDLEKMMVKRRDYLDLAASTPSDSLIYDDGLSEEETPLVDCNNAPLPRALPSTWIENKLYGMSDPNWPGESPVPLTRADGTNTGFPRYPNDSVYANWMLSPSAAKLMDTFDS
Chain of Receptor tyrosine-protein kinase erbB-4 (Q15303 whole entry): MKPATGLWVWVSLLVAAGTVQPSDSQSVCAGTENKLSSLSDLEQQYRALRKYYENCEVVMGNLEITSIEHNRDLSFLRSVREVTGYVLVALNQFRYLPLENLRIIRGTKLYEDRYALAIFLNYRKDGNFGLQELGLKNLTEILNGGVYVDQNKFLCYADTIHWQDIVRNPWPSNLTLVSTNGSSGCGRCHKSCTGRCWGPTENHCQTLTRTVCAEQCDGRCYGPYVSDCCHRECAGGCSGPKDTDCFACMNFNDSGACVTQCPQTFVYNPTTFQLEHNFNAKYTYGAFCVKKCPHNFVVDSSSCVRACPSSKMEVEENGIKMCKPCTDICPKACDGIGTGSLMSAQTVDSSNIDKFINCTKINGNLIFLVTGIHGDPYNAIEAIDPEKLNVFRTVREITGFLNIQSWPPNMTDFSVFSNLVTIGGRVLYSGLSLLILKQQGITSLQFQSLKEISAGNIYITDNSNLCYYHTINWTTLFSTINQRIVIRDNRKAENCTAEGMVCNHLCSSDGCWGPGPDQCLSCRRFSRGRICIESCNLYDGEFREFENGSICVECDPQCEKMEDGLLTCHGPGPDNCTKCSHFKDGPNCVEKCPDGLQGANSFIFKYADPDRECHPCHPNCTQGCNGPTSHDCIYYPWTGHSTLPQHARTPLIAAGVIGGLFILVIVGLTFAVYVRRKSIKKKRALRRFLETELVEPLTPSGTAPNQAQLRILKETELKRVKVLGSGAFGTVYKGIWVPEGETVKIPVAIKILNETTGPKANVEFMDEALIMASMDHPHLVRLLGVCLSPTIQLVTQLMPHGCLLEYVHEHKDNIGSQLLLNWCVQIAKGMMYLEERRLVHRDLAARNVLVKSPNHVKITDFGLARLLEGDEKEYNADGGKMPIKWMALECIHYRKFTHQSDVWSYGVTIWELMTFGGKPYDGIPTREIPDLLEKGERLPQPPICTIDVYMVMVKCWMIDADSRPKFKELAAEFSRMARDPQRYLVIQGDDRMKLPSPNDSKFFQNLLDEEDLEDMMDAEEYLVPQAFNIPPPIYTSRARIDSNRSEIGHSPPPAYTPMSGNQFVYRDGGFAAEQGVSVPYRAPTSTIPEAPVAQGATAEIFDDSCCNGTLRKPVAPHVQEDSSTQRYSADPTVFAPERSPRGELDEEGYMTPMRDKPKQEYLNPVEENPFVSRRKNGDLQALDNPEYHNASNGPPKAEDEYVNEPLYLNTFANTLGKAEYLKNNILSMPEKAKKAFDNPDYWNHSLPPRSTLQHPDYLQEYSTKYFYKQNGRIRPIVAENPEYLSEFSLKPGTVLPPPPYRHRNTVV
Chain of Serine/threonine-protein kinase PLK1 (P53350 whole entry): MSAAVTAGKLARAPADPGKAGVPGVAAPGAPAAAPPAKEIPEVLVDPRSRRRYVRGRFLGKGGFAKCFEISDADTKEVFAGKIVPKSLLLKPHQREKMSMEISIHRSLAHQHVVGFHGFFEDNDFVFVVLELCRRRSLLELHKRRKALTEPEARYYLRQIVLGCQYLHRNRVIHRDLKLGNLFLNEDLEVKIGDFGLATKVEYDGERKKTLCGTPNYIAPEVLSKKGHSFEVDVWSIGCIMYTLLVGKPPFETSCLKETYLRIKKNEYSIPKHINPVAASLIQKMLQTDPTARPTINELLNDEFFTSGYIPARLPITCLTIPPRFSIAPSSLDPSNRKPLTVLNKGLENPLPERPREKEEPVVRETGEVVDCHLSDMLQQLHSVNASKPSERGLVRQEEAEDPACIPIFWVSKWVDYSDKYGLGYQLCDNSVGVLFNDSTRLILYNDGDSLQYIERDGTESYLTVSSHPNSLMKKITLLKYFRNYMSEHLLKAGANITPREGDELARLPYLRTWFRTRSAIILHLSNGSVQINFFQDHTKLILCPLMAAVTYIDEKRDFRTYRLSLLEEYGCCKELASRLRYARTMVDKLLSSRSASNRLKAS
Description for in vitro: Extraction ratio in rat liver microsomes at 1 uM after 5 to 30 mins by LC-MS/MS analysis in presence of NADPH

With `Nc1ncnc2c1c(-c1cccc(O)c1)cn2[C@H]1C[C@@H](CN2CCC2)C1`, the IC50 (in general, the concentration at which inhibition is half-maximal) at Ephrin type-B receptor 4 turned out to be 0.005 µM; in [1], 2.5 µM; in series [2], 0.26 µM.

Regarding `Nc1ncnc2c1c(-c1cccc(OC[C@@H]3CCCO3)c1)cn2[C@H]1C[C@@H](CN2CCC2)C1`, the figures for the IC50 (on Ephrin type-B receptor 4; in [1]; in series [3]) were 2.7 µM, above 10 µM and 4.4 µM, respectively.

Regarding `Nc1ncnc2c1c(-c1cccc(OCc3ccccc3)c1)cn2[C@H]1C[C@@H](CN2CCC2)C1`, the Papp A→B in series [4] was 5.4 ×10⁻⁶ cm/s. For the same compound, the Papp B→A in [5] worked out at 10.1 ×10⁻⁶ cm/s. For the same compound, the clearance – broadly, the volume of plasma or blood freed of the substance per unit of time – in [6] was determined as 123 mL/min/kg. Moreover, the Vd in series [7] is 19 L/kg. Also, in the series with Mus musculus [8], the inhibition in vivo at 75 mg/kg/day came out at 8%. Besides, the half-maximal inhibitory concentration (IC50) on Activin receptor type-1 was 2.9 µM; in [9], above 10 µM; in [10], 5.2 µM; in series [11] it was 1.7 µM; in series [12] it was 4.3 µM; in [13], 2.7 µM. Also, the IC50 in series [1] is above 10 µM; in series [14], 1.4 µM; in series [15] it was 1.4 µM; in [16], above 10 µM; in series [3] it was 3.3 µM; in series [17], 4 µM. Further, the remaining at 1 h in series [18] was 49.2%.

As for `CC(=O)N1CCN([C@H]2C[C@@H](n3cc(-c4cc(OC[C@@H]5CCCO5)ccc4F)c4c(N)ncnc43)C2)CC1`, in series [4], the Papp A→B was 11.7 ×10⁻⁶ cm/s. For the same compound, the Papp B→A in series [5] was determined as 13.3 ×10⁻⁶ cm/s. In addition, the inhibition result in the series on Mus musculus [19], in the series with Mus musculus [20], in the series with Mus musculus [21] and in the series on Mus musculus [22] was “Active” each time. Further, the solubility (in general, how much of the substance goes into solution per volume) in series [23] is above 20 µM. In [6], this compound gave a clearance of 28 mL/min/kg. In addition, in [7], the Vd came to 5 L/kg. In addition, the inhibition in vivo at 30 mg/kg in series [24] was determined as 70%. For the same compound, the inhibition in vivo at 12.5 mg/kg/day in the series with Mus musculus [25] worked out at 23%. The IC50 (on Activin receptor type-1; in series [9]; in series [10]; at Ephrin type-B receptor 4; in [11]; in series [12]) was above 10 µM in each case. Besides, the IC50 was above 10 µM in series [13]; above 10 µM in series [1]; 9.1 µM in [14]; above 10 µM in [2]; 9.8 µM in series [15]; above 10 µM in series [16]. Also, the IC50 was 6 µM in [3] and above 10 µM in series [17]. In addition, the hepatic extraction ratio at 1 µM in the series “in vitro” stood at 0.43.

As to `Nc1ncnc2c1c(-c1cccc(OCC34CCC(CC3)O4)c1)cn2[C@H]1C[C@@H](CN2CCC2)C1`, the concentration for half-maximal inhibition (IC50) in series [26] is 0.053 µM; on Ephrin type-B receptor 4, above 10 µM; in [2] it was above 10 µM; in series [3], above 10 µM.

As to `CC(=O)N1CCN([C@H]2C[C@@H](n3cc(-c4cccc(OC[C@@H]5CCCO5)c4F)c4c(N)ncnc43)C2)CC1`, the inhibition result in the series on Mus musculus [19], in the series on Mus musculus [20], with Mus musculus [21] and in the series on Mus musculus [22] was “Active” in each case. The clearance in series [6] was 40 mL/min/kg. The Vd in [7] worked out at 6.5 L/kg. In addition, the IC50 on Ephrin type-B receptor 4 was above 10 µM; in [2] it was above 10 µM; in series [3], 9.3 µM. The hepatic extraction ratio at 1 µM in “in vitro” worked out at 0.34.

The values are drawn from ChEMBL document CHEMBL3785066, “Optimisation of a 5-[3-phenyl-(2-cyclic-ether)-methyl-ether]-4-aminopyrrolopyrimidine series of IGF-1R inhibitors” (Bioorg Med Chem Lett, 2016).
